Measurements: patent US20220313621A1, “FORMULATIONS OF CANNABINOIDS FOR THE TREATMENT OF PSORIASIS” (priority 2017, published 2022)

Columns and labels:
[1] = Discoloration of CBD solutions; type: physicochemical; settings: end of day 1
Source text: The CBD2 material dissolved like the CBD1 therefore the CBD2 is CBD without the discoloration properties of CBD1.

sensitized guinea-pigs = settings: 1 mg/kg i.v.; cited from earlier work
anandamide = settings: rat basophilic leukemia cells; cited from earlier work
[2] = Solubility of CBD in the Receptor Fluid; type: physicochemical; settings: not told, aqueous with cosolvent or surfactant or cyclodextrin; PBS with 0.01 wt % NaN3, 4 wt % hydroxypropyl-cyclodextrin, 1 wt % Brij O20
[3] = in ethanol; cited from earlier work
[4] = Solubility of CBD in solvents and excipients; type: physicochemical
Procedure: First, the solubility of cannabidiol (CBD) was assessed. The powder looked granulated under the microscope. […] The conclusions from the solubility studies were that OA and IPA were very good solvents and it was surprising that IPA was so much better than ethanol.
Solubility studies: CBD dissolved at the 10% level in AE and barely 9.5% in IPM. Further exploration was not conducted due to the small amount of drug API available for non-GMP work. CBD is soluble greater than 10% but probably not in excess of 20%, as the time to dissolve additional CBD was taking considerably longer.

rats = settings: 5 mg/kg, i.v., once daily for 4 weeks; cited from earlier work
[5] = target: T1, human vanilloid receptor type 1 (VR1) (Homo sapiens, UniProt Q8NER1); settings: HEK-hVR1 transfected cells; cited from earlier work
T1 construct: expressed in transfected cells; host or cells: HEK cells transfected with hVR1 (HEK-hVR1)
T1 sequence (Q8NER1 whole entry): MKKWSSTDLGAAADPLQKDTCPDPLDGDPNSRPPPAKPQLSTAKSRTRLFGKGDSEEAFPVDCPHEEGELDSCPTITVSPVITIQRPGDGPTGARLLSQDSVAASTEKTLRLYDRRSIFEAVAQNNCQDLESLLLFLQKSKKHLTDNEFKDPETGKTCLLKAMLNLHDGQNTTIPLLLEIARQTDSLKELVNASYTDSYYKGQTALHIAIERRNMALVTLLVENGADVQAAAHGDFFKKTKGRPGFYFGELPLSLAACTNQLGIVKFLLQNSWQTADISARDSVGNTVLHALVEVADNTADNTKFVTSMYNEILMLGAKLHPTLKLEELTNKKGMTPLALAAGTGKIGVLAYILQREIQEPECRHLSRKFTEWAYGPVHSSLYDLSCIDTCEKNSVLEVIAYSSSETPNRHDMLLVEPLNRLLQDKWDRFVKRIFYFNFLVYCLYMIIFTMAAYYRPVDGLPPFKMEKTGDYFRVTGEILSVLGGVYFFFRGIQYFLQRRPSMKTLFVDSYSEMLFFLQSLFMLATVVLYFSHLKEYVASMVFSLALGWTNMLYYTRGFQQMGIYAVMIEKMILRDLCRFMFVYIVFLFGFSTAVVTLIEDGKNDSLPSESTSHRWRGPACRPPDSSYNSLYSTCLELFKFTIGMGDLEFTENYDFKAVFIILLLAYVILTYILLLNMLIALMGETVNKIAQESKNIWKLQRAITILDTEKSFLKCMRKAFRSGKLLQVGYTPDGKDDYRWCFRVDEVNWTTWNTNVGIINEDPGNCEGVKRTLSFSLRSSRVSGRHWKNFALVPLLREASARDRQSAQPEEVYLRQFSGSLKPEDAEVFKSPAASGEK

Structure (SMILES) | discoloration of solution [1] | ovalbumin-induced airway obstruction (sensitized guinea-pigs) | inhibition of anandamide (anandamide) | solubility [2] [µg/mL] | reported solubility [3] [%] | solubility (weight to weight) ([4]; in ethanol) | solubility (weight to weight) ([4]; in hexamethyldisiloxane (HDS)) | solubility (weight to weight) ([4]; in isopropyl alcohol (IPA)) | solubility ([4]; in isopropyl myristate (IPM)) [%] | solubility (weight to weight) ([4]; in mineral oil) | solubility (weight to weight) ([4]; in oleyl alcohol (OA)) | solubility (weight to weight) ([4]; in propylene glycol (PG)) | cardiac inflammation produced by doxorubicin (rats) | stimulation of human vanilloid receptor type 1 (VR1) [5]
C=C(C)[C@@H]1CCC(C)=C[C@H]1c1c(O)cc(CCCCC)cc1O [CBD1] | coloured by the end of the day | – | – | – | – | – | – | – | – | – | – | – | – | –
C=C(C)[C@@H]1CCC(C)=C[C@H]1c1c(O)cc(CCCCC)cc1O [CBD2] | None of the CBD2 solutions were coloured at the end of day 1 | – | – | – | – | – | – | – | – | – | – | – | – | –
C=C(C)C1CCC(C)=CC1c1c(O)cc(CCCCC)cc1O (stereo not drawn) [CBD, 2-[3-methyl-6-(1-methylethenyl)-2-cyclohexen-1-yl]-5-pentyl-1,3-benzenediol] | – | attenuated ovalbumin-induced airway obstruction | inhibit anandamide | > 50 | 3.5 | 6-7% | 3-4% | greater than 14% | ~9.5 | 3-4% | greater than 8% | 6-7% | attenuated cardiac inflammation produced by doxorubicin | maximum effect similar in efficacy to that of capsaicin
